Results: ChEMBL document CHEMBL1137691, “Diazinium salts with dihydroxyacetophenone skeleton: Syntheses and antimicrobial activity” (2009)

How the values were obtained:
Assay type in all cases: functional
Staphylococcus aureus = test: Antibacterial activity against Staphylococcus aureus ATCC 25923 at 30 ug/disk after 24 hrs by diffusion technique; conditions: ATCC 25923, 24 h, read-out: DIZ
[1] = test system: Staphylococcus saprophyticus; test: Antibacterial activity against Staphylococcus saprophyticus at 30 ug/disk after 24 hrs by diffusion technique; conditions: read-out: DIZ
Micrococcus luteus = test: Antibacterial activity against Sarcina lutea ATCC 9341 at 30 ug/disk after 24 hrs by diffusion technique; conditions: ATCC 9341, 24 h, read-out: DIZ
Bacillus cereus = test: Antibacterial activity against Bacillus cereus at 30 ug/disk after 24 hrs by diffusion technique; conditions: read-out: DIZ
Bacillus subtilis = test: Antibacterial activity against Bacillus subtilis at 30 ug/disk after 24 hrs by diffusion technique; conditions: read-out: DIZ
Escherichia coli = test: Antibacterial activity against Escherichia coli ATCC 25922 at 30 ug/disk after 24 hrs by diffusion technique; conditions: ATCC 25922, 24 h, read-out: DIZ
Pseudomonas aeruginosa = test: Antibacterial activity against Pseudomonas aeruginosa at 30 ug/disk after 24 hrs by diffusion technique; conditions: read-out: DIZ
Candida albicans = test: Antifungal activity against Candida albicans at 100 ug/disk after 24 hrs by diffusion technique; conditions: for zone of inhibition at 100 µg/disc: read-out: DIZ

Molecule	zone of inhibition at 30 µg/disc (Staphylococcus aureus) [mm]	zone of inhibition at 30 µg/disc [1] [mm]	zone of inhibition at 30 µg/disc (Micrococcus luteus) [mm]	zone of inhibition at 30 µg/disc (Bacillus cereus) [mm]	zone of inhibition at 30 µg/disc (Bacillus subtilis) [mm]	zone of inhibition at 30 µg/disc (Escherichia coli) [mm]	zone of inhibition at 30 µg/disc (Pseudomonas aeruginosa) [mm]	zone of inhibition at 100 µg/disc (Candida albicans) [mm]	inhibition zone (IZ) (Candida albicans) [mm]
Cc1ccc(-c2ccc[n+](CC(=O)c3ccc(O)c(O)c3)n2)cc1	23	40	41	33	35	40	16	25	–
O=C(C[n+]1ccccn1)c1ccc(O)c(O)c1	17	15	30	20	11	30	20	0	–
O=C(N[C@H](CO)[C@H](O)c1ccc([N+](=O)[O-])cc1)C(Cl)Cl [CHLORAMPHENICOL]	23	23	38	22	22	22	11	–	–
Cc1ccc[n+](CC(=O)c2ccc(O)c(O)c2)n1	26	29	40	29	28	28	18	15	–
NYSTATIN	–	–	–	–	–	–	–	–	28
Cc1cc[n+](CC(=O)c2ccc(O)c(O)c2)cn1	31	35	40	35	36	41	30	27	–
O=C(C[n+]1cccc(-c2ccc(Br)cc2)n1)c1ccc(O)c(O)c1	17	21	30	9	16	15	15	12	–
O=C(C[n+]1ccc(O)nc1)c1ccc(O)c(O)c1	33	35	42	32	38	44	36	28	–
